Results published in patent US10633419B2, “Immunomodulators” (BRISTOL-MYERS SQUIBB COMPANY, priority 2014, dated 2020).
Starred links: 1 amine or outer side, 2 acyl side, 3 side chain; linkers in the order of their positions; H or OH if unused. Positions of bridges follow the written chain, without caps; N, C: chain ends. Non-standard residues stand in square brackets, D forms with d. Residues, ends and D or L forms follow the SMILES beside them. Groups on a side chain read outwards from the residue. *: point of attachment. Trp(1-CH2COOH) = N[C@@H](Cc1cn(CC(=O)O)c2ccccc12)C(=O)O; C18 diacid = O=C(O)CCCCCCCCCCCCCCCCC(=O)*; Phe(4-F) = N[C@@H](Cc1ccc(F)cc1)C(=O)O; γGlu = O=C(O)[C@H](CCC(=O)[*:2])N[*:1]; Ethylenediamine = C(CN[*:2])N[*:1]; Hyp = O=C(O)[C@@H]1C[C@@H](O)CN1; Undecanoyl = CCCCCCCCCCC(=O)*; NMeNle = CCCC[C@H](NC)C(=O)O; Pip = O=C(O)[C@@H]1CCCCN1; NMeA = CN[C@@H](C)C(=O)O; Pra = C#CC[C@H](N)C(=O)O; Aun = NCCCCCCCCCCC(=O)O; Dab = NCC[C@H](N)C(=O)O; Dap = NC[C@H](N)C(=O)O

Target: T1, PD-L1 (Homo sapiens, UniProt Q9NZQ7)
T1 construct: hPDL1(19-239)-TVMV-His; made in house; host or cells: HEK293T
T1 sequence (Q9NZQ7 with tags, fused parts or gaps): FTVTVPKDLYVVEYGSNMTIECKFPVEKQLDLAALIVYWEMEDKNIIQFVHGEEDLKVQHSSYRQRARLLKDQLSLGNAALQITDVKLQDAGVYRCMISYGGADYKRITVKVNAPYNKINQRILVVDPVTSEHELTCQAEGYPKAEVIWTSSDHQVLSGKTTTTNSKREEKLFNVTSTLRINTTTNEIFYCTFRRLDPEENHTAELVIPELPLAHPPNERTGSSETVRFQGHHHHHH
Assay: PD-1/PD-L1 Homogenous Time-Resolved Fluorescence (HTRF) binding assay (PD-1-Ig/PD-L1-His)
Conditions: inhibition of PD-1-Ig binding to PD-L1-TVMV-His; value given as range class; read-out: HTRF IC50
Outline: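 Inhibitors pre-incubated 15 min with PD-L1-His (10 nM final), then PD-1-Ig (20 nM final) added for 15 min in dPBS/0.1% BSA/0.05% Tween-20. Eu-cryptate anti-Ig (1 nM) and APC anti-His (20 nM) added, 30 min equilibration, 665/620 nm HTRF ratio read.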

Structure (SMILES)	IC50
C#CC[C@H](NC(=O)CNC(=O)[C@@H]1CSCC(=O)N[C@@H](Cc2ccc(O)cc2)C(=O)N(C)[C@@H](C)C(=O)N[C@@H](CC(=O)O)C(=O)N2CCC[C@H]2C(=O)N[C@@H](Cc2c[nH]cn2)C(=O)N[C@@H](CCCCN)C(=O)N2C[C@H](O)C[C@H]2C(=O)N[C@@H](Cc2c[nH]c3ccccc23)C(=O)N[C@@H](CCCCN)C(=O)N[C@@H](Cc2cn(CC(=O)O)c3ccccc23)C(=O)N(C)[C@@H](CCCC)C(=O)N(C)[C@@H](CCCC)C(=O)N[C@@H](CCC(=O)O)C(=O)N1)C(=O)O [INT 1300Y] ({CH2CO}-Y[NMeA]DPHK[Hyp]WK[Trp(1-CH2COOH)][NMeNle][NMeNle]ECG[Pra]-OH; thioether N-14)	0.3 to 9.9 nM
CCCCCCCCCCC(=O)NCCCC[C@H](NC(=O)[C@H](CC(=O)O)NC(=O)CNC(=O)[C@@H]1CSCC(=O)N[C@@H](Cc2ccc(O)cc2)C(=O)N(C)[C@@H](C)C(=O)N[C@@H](CC(=O)O)C(=O)N2CCC[C@H]2C(=O)N[C@@H](Cc2cnc[nH]2)C(=O)N[C@@H](CC(C)C)C(=O)N2C[C@H](O)C[C@H]2C(=O)N[C@@H](Cc2c[nH]c3ccccc23)C(=O)N[C@@H](CO)C(=O)N[C@@H](Cc2c[nH]c3ccccc23)C(=O)N(C)[C@@H](CCCC)C(=O)N(C)[C@@H](CCCC)C(=O)N[C@@H](CCCNC(=N)N)C(=O)N1)C(N)=O [Example 11006] ({CH2CO}-Y[NMeA]DPHL[Hyp]WSW[NMeNle][NMeNle]RCGDK(Undecanoyl)-NH2; thioether N-14)	10 to 99 nM
CCCC[C@H]1C(=O)N(C)[C@@H](CCCC)C(=O)N[C@@H](CCCNC(=N)N)C(=O)N[C@H](C(=O)NCC(=O)NCC(=O)NCC(=O)NCCCCCCCCCCC(=O)O)CSCC(=O)N[C@@H](Cc2ccc(O)cc2)C(=O)N(C)[C@@H](C)C(=O)N[C@@H](CC(=O)O)C(=O)N2CCC[C@H]2C(=O)N[C@@H](Cc2cnc[nH]2)C(=O)N[C@@H](CC(C)C)C(=O)N2C[C@H](O)C[C@H]2C(=O)N[C@@H](Cc2c[nH]c3ccccc23)C(=O)N[C@@H](CO)C(=O)N[C@@H](Cc2c[nH]c3ccccc23)C(=O)N1C [Example 11070] ({CH2CO}-Y[NMeA]DPHL[Hyp]WSW[NMeNle][NMeNle]RCGGG[Aun]-OH; thioether N-14)	0.3 to 9.9 nM

More lines, now with the values ahead:

IC50	Structure (SMILES)
100 to 1600 nM	C=C1N[C@@H](Cc2c[nH]c3ccccc23)C(=O)N[C@@H](CCN)C(=O)N[C@@H](Cc2cn(CC(=O)O)c3ccccc23)C(=O)N(C)[C@@H](CCCC)C(=O)N(C)[C@@H](CCCC)C(=O)N[C@@H](CC(C)C)C(=O)N[C@H](C(=O)NCC(=O)N[C@@H](CC(=O)NCCOCCOCCOCCOCCOCCOCCC(=O)NC[C@H](NC(=O)CCCCCCCCCCCCCCCCC(=O)O)C(=O)O)C(=O)O)CSCC(=O)N[C@@H](Cc2ccc(O)cc2)C(=O)N(C)[C@@H](C)C(=O)N[C@@H](CC(N)=O)C(=O)N2CCC[C@H]2C(=O)N[C@@H](CN)C(=O)N[C@@H](CC(C)C)C(=O)N2C[C@H](O)C[C@@]12O [Example 11183]
0.3 to 9.9 nM	CCCC[C@H]1C(=O)N(C)[C@@H](CCCC)C(=O)N[C@@H](CC(C)C)C(=O)N[C@H](C(=O)NCC(=O)N[C@@H](CCC(=O)NCCNC(=O)CC[C@H](NC(=O)CCCCCCCCCCCCCCCCC(=O)O)C(=O)O)C(=O)O)CSCC(=O)N[C@@H](Cc2ccc(F)cc2)C(=O)N2CCCC[C@H]2C(=O)N[C@@H](CC(=O)O)C(=O)N2CCC[C@H]2C(=O)N[C@@H](CN)C(=O)N[C@@H](CC(C)C)C(=O)N2C[C@H](O)C[C@H]2C(=O)N[C@@H](Cc2c[nH]c3ccccc23)C(=O)N[C@@H](CCN)C(=O)N[C@@H](Cc2cn(CC(=O)O)c3ccccc23)C(=O)N1C [Example 14123] ({CH2CO}-[Phe(4-F)][Pip]DP[Dap]L[Hyp]W[Dab][Trp(1-CH2COOH)][NMeNle][NMeNle]LCGE([Ethylenediamine-γGlu-C18 diacid])-OH; thioether N-14)
0.3 to 9.9 nM	CCCC[C@H]1C(=O)N(C)[C@@H](CCCC)C(=O)N[C@@H](CC(C)C)C(=O)N[C@H](C(=O)NCC(=O)NCC(=O)NCC(=O)NCCCCCCCCCCC(=O)O)CSCC(=O)N[C@@H](Cc2ccc(O)cc2)C(=O)N(C)[C@@H](C)C(=O)N[C@@H](CC(N)=O)C(=O)N2CCC[C@H]2C(=O)N[C@@H](CN)C(=O)N[C@@H](CC(C)C)C(=O)N2C[C@H](O)C[C@H]2C(=O)N[C@@H](Cc2c[nH]c3ccccc23)C(=O)N[C@@H](CCN)C(=O)N[C@@H](Cc2cn(CC(=O)O)c3ccccc23)C(=O)N1C [Example 11091] ({CH2CO}-Y[NMeA]NP[Dap]L[Hyp]W[Dab][Trp(1-CH2COOH)][NMeNle][NMeNle]LCGGG[Aun]-OH; thioether N-14)
